Laboratory results: ChEMBL document CHEMBL5214943, “Guanidino quinazolines and pyrimidines promote readthrough of premature termination codons in cells with native nonsense mutations” (Bioorg Med Chem Lett, 2022)
Activity calls are given as the source filed them. The calls are words filed in the database; no cut-off is given here.

Biological target: Dystrophin (Mus musculus) (UniProt P11531)
Experiment: Induction of read through activity at dystrophin in mouse H2K mdx cells assessed as increase in production of full length dystrophin protein at 0.01 to 100 uM by MSD assay
Format: cell-based
Details: filed as activator, dose 0.01-100 µM

Dystrophin (Mus musculus), sequence (P11531 whole entry): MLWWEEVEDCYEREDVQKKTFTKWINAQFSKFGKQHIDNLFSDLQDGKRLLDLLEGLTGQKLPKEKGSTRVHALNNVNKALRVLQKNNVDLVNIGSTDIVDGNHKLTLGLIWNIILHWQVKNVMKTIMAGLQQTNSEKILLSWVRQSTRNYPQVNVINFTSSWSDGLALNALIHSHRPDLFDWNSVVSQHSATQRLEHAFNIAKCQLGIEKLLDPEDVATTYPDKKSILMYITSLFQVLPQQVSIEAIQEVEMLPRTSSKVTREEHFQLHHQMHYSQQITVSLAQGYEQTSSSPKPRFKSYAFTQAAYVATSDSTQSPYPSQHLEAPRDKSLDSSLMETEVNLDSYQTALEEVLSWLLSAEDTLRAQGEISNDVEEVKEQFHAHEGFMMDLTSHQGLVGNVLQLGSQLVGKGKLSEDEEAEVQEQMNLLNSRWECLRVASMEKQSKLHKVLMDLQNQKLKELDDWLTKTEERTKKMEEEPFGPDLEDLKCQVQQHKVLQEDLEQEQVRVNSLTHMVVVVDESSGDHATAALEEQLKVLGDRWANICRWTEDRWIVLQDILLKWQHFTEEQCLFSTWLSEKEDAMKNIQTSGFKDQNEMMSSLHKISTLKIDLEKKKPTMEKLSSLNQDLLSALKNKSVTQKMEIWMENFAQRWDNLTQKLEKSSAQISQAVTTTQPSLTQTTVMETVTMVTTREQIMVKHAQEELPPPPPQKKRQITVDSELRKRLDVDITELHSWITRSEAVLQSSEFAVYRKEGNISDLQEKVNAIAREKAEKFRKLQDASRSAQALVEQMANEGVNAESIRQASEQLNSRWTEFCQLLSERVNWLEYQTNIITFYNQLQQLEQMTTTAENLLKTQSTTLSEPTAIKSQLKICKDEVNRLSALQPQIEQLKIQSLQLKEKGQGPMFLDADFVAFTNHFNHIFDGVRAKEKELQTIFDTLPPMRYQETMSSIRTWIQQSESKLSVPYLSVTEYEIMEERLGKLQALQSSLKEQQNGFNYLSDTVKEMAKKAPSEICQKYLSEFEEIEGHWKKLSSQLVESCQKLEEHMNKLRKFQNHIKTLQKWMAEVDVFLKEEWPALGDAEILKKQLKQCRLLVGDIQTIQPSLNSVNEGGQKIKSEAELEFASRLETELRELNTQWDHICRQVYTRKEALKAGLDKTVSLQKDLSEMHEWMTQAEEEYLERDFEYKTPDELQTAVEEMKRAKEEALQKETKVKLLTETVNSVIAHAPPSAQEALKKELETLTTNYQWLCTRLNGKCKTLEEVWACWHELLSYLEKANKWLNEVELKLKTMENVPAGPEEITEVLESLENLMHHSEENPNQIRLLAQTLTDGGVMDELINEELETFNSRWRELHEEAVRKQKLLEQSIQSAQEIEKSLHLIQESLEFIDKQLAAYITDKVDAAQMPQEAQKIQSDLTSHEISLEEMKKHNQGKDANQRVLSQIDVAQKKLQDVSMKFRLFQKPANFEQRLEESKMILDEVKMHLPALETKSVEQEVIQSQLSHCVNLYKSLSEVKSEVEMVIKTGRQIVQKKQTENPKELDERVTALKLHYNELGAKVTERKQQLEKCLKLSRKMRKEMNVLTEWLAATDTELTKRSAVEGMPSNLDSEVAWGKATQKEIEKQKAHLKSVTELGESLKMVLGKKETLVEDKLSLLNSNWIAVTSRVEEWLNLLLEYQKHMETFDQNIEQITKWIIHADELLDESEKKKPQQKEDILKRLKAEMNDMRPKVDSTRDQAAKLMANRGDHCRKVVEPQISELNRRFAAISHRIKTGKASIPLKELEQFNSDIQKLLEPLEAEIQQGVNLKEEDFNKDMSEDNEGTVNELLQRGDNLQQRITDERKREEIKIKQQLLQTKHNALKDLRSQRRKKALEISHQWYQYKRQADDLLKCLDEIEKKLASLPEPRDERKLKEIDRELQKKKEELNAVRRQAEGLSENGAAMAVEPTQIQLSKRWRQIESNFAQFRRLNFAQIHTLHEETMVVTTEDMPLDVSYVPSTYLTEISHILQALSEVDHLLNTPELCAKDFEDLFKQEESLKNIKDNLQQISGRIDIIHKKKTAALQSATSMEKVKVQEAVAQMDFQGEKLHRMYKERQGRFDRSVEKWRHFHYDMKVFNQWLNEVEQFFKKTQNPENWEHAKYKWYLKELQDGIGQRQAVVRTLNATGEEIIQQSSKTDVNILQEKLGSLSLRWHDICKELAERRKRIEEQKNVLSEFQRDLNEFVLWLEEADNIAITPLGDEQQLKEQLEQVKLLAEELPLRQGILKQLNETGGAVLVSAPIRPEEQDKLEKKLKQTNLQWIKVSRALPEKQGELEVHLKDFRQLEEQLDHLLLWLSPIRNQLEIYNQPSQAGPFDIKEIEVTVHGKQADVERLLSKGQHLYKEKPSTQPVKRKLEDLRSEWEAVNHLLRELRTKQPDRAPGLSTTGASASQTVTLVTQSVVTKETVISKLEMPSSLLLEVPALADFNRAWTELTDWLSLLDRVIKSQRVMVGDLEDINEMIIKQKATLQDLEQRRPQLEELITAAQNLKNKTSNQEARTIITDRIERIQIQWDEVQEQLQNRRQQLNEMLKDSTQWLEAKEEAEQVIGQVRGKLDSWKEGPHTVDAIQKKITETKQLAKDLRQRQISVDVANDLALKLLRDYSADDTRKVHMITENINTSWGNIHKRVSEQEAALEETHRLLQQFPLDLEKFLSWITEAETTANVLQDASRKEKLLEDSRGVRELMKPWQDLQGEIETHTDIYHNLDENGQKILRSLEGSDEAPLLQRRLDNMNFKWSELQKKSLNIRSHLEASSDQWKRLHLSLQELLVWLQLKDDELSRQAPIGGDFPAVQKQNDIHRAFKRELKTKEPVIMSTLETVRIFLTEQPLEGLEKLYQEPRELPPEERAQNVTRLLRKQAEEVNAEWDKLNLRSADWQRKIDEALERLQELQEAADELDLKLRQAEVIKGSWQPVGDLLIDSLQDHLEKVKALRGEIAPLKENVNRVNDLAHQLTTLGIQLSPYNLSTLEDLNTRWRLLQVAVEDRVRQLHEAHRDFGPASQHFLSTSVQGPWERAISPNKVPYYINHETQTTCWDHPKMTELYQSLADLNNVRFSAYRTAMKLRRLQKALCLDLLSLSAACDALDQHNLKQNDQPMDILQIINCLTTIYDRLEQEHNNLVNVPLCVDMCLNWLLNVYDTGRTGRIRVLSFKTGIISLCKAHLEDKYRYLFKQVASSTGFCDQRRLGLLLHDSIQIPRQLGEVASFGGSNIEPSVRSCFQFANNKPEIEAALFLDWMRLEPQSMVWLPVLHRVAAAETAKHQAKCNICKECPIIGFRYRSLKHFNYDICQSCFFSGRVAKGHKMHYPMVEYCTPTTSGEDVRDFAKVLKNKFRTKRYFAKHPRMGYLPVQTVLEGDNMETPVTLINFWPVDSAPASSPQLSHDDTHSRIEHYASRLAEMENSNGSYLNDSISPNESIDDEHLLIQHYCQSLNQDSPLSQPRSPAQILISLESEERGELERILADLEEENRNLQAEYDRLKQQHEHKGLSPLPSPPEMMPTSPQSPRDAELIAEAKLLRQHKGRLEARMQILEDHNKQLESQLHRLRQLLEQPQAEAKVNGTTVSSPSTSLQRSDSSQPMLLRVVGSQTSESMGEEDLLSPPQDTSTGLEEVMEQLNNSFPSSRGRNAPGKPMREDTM

SMILES	Activity
Cc1nc(NC(=N)NCCCN2CCCC2)nc(-c2ccoc2)c1C	Active

Biological target: Dystrophin (Mus musculus) (UniProt P11531)
Experiment: Induction of read through activity at dystrophin in mouse H2K mdx cells assessed as increase in production of full length dystrophin protein by measuring fold change at 0.01 to 100 uM by MSD assay
Format: cell-based
Details: filed as activator, dose 0.01-100 µM

SMILES	fold change (FC)
N=C(NCCCN1CCCCC1)Nc1nc2c(c(-c3ccoc3)n1)CCC2	3

System: Premature termination codon
Experiment: Induction of read through activity at T-p53 R213X mutant premature termination codon in human HDQ-P1 cells assessed as increase in production of full length p53 protein by MSD assay
Format: cell-based
Details: not given

SMILES	EC2 [µM]
Cc1nc(NS(N)(=O)=O)nc2cc(Cl)ccc12	> 100
Cc1nc(NC(=N)NCC(=O)O)nc2cc(F)ccc12	> 100
Cc1nc(NC(=N)N(C)CCCN(C)C)nc2ccccc12	> 30
Cc1ccc2cnc(NC(=N)N)nc2c1	> 100
Cc1nc(NC(N)=O)nc2cc(Cl)ccc12	> 100
Cc1nc(NC(=N)NCCCN(C)CC(F)(F)F)nc2ccccc12	> 30
Cc1nc(NC(=N)N)cc2ccccc12	> 100
Cc1nc(NC(=N)NCCCN2CCCC2)nc(C)c1-c1ccoc1	> 30
Cc1nc(NC(=N)NCCCN(C)CC(=O)O)nc2ccccc12	> 30
Cc1ccc2c(C)cc(NC(=N)N)nc2c1	> 100
Cc1ccnc(NC(=N)NCCCN(C)C)n1	> 30
Cc1nc(NC(=N)Nc2cccc(N(C)C)c2)nc2cc(Cl)ccc12	> 30
Cc1nc(N)nc2ccccc12	> 100
Cc1nc(NC(=N)NCC(F)(F)CN(C)C)nc2ccccc12	> 30
C/N=C(/NCCCN(C)C)Nc1nc(C)c2ccccc2n1	> 30

Same assay, conditions: filed as activator

SMILES	EC2 [µM]
Cc1nc(NC(=N)NCCCN2CCCCC2)nc2cc(F)ccc12	0.68
Cc1cccc2nc(NC(=N)N[C@@H]3CCN(C)C3)nc(C)c12	0.34
CN(C)CCCNC(=N)Nc1nc2c(c(-c3ccoc3)n1)CCCC2	1.1
Cc1nc(NC(=N)NCCCN2CCCC2)nc(-c2ccoc2)c1C	1.2
Cc1nc(NC(=N)NCCCN2CCOCC2)nc2cc(F)ccc12	4.7
Cc1nc(NC(=N)NCCCN(C)[C@@H](C)c2ccccc2)nc2ccccc12	2.2
CN(C)CCCNC(=N)Nc1nc(-c2ccoc2)c2ccsc2n1	1.3
CN1CCC(NC(=N)Nc2nc3c(c(-c4ccoc4)n2)CCC3)CC1	0.22
CCN(CC)CCCNC(=N)Nc1nc(C)c2ccc(F)cc2n1	2.2
Cc1nc(NC(=N)NCCCc2ccccc2)nc2ccccc12	47
Cc1cccc2nc(NC(=N)NC3CCN(C)CC3)nc(C)c12	0.51
Cc1ccc2c(C)nc(NC(=N)NCCOCCO)nc2c1	48
Cc1ccc2nc(NC(=N)NCCCN3CCCC3)nc(C)c2c1	2.3
Cc1nc(NC(=N)NC2CCCC(N(C)C)C2)nc2cc(F)ccc12 (stereo not given)	5.5
Cc1nc(NC(=N)NCCCN2CCCC2)nc(-c2ccoc2)c1Br	0.96
CNC(=N)Nc1nc(C)c2ccc(C)cc2n1	7.7
Cc1nc(NC(=N)NCCO)nc2cc(F)ccc12	26
Cc1nc(NC(=N)NCCCN2CCCC2)nc(-c2ccoc2)c1Cl	0.77
CN(C)CCCNC(=N)Nc1nc(-c2ccoc2)c2occc2n1	2
Cc1nc(NC(=N)NCCCN2CCCC2)nc(-c2cccs2)c1C	0.42
Cc1nc(NC(=N)NCCCN2CCCC2)nc(-c2ccco2)c1C	0.56
CN(C)CCCNC(=N)Nc1nc(-c2ccccc2)c2ccccc2n1	7.5
Cc1nc(NC(=N)NCCCN(C)[C@H](C)c2ccccc2)nc2ccccc12	1.8
Cc1ccc2c(C)nc(NC(=N)N)nc2c1	10
Cc1ccc2c(C)nc(NC(=N)NCCCN3CCCC3)nc2c1	1

SMILES	EC2 [µM]
CN[C@@H]1[C@@H](O)[C@@H](O[C@@H]2[C@@H](O)[C@H](O[C@H]3O[C@H]([C@H](C)O)[C@@H](O)[C@H](O)[C@H]3N)[C@@H](N)C[C@H]2N)OC[C@]1(C)O	8.5
Cc1cccc2nc(NC(=N)N[C@@H]3CCNC3)nc(C)c12	1.3
CN(C)CCCNC(=N)Nc1nc2c(c(-c3ccoc3)n1)CCCCC2	3.5
N=C(NCCCN1CCCC1)Nc1nc2c(c(-c3ccoc3)n1)CCC2	0.44
Cc1nc(NC(=N)NCCN(C)C)nc2cc(F)ccc12	3.9
Cc1cc(-c2ccoc2)nc(NC(=N)NCCCN(C)C)n1	3
Cc1nc(NC(=N)N[C@H](C)CCN(C)C)nc2ccccc12	2.5
Cc1cccc2nc(NC(=N)N[C@H]3CCN(C)C3)nc(C)c12	1
Cc1nc(NC(=N)NCCCN2CCCC2)nc2c(C)cccc12	0.55
Cc1nc(NC(=N)NCC2(CN(C)C)CCCC2)nc2cc(F)ccc12	16
Cc1nc(NC(=N)NCCCN(C)C)nc2ccccc12	1.7
Cc1cccc2nc(NC(=N)NC3CCNCC3)nc(C)c12	1.1
CN(C)CCCNC(=N)Nc1ncc2ccccc2n1	7.5
Cc1nc(NC(=N)NCCCN(C)CC2CCC2)nc2cc(F)ccc12	1.1
CN(C)CCCNC(=N)Nc1nc2c(c(-c3ccoc3)n1)CCCCCC2	2.7
Cc1nc(NC(=N)NCCCN2CCCC2)nc2ccccc12	2.1
CN(C)CCCNC(=N)Nc1nc(-c2ccoc2)c2sccc2n1	0.7
Cc1nc(NC(=N)NCCCN)nc2cc(F)ccc12	9.8
CCc1c(C)nc(NC(=N)NCCCN2CCCC2)nc1-c1ccoc1	3.2
Cc1nc(NC(=N)NCCCCN(C)C)nc2cc(F)ccc12	2.2
Cc1nc(NC(=N)NCCCN(C)C)nc2cc(F)cc(F)c12	2.9
COc1cccc(NC(=N)Nc2nc(C)c3ccccc3n2)c1	21
Cc1nc(NC(=N)NCCCN2CCCC2)nc(-c2ccoc2)c1F	1.6
Cc1nc(NC(=N)NCCCN2CCC3(CCC3)C2)nc2cc(F)ccc12	2.3
CCNC(=N)Nc1nc(C)c2ccc(Cl)cc2n1	21

SMILES	EC2 [µM]
Cc1nc(NC(=N)NCCCN(C)C)nc2cc(F)ccc12	1.1
Cc1nc(NC(=N)NCCCN2CCCC2)nc(-c2ccoc2)c1C(F)(F)F	15
Cc1nc(NC(=N)NCCCN2CCN3CCCCC3C2)nc2cc(F)ccc12 (stereo not given)	3.5
Cc1nc(N=C(N)N)nc2cc(F)ccc12	13
Cc1cccc2nc(NC(=N)N[C@H]3CCNC3)nc(C)c12	2.2
Cc1nc(NC(=N)NCCCN2CCCC2)nc2cc(F)ccc12	1.5
N=C(NCCCN1CCCCC1)Nc1nc2c(c(-c3ccoc3)n1)CCC2	0.4
Cc1nc(NC(=N)N)nc2ccccc12	20
Cc1cc(-c2ccccc2)nc(NC(=N)NCCCN(C)C)n1	7.3
CN(C)CCCNC(=N)Nc1nc2c(c(-c3ccoc3)n1)COC2	2.4
COCCNC(=N)Nc1nc(C)c2ccc(C)cc2n1	12
Cc1ccc2c(C)nc(NC(=N)NCCCN(C)C)nc2c1	1.1
CN1CCC(NC(=N)Nc2nc3c(c(-c4ccco4)n2)CCC3)CC1	0.12
Cc1nc(NC(=N)NCCCCCN(C)C)nc2cc(F)ccc12	6.6
Cc1nc(NC(=N)NCCCN(C)C)nc2cc(Cl)ccc12	0.85
Cc1nc(NC(=N)NCCCN(C)C)nc2cccc(F)c12	0.92
Cc1nc(N=C(N)N)nc2cc(Cl)ccc12	6.3
CCc1cc(C)nc(NC(=N)NCCCN(C)C)n1	17
Cc1nc(NC(=N)NCCCCCCN(C)C)nc2cc(F)ccc12	17
CN(C)CCCNC(=N)Nc1nc2c(c(-c3ccoc3)n1)CCC2	0.44
Cc1nc(NC(=N)NCCCN2CCCC2)nc(-c2ccsc2)c1C	1.4
N=C(NCCCN1CCC1)Nc1nc2c(c(-c3ccoc3)n1)CCC2	0.44
Cc1nc(NC(=N)NCCCN(C)C)nc(-c2ccoc2)c1C	1.3
CNCCCNC(=N)Nc1nc(C)c2ccc(F)cc2n1	2.5
Cc1cccc2nc(NC(=N)NCCCN3CCCC3)nc(C)c12	0.84

Biological target: Dystrophin (Mus musculus) (UniProt P11531)
Experiment: Induction of read through activity at dystrophin in mouse H2K mdx cells assessed as increase in production of full length dystrophin protein at 0.07 to 2 uM by western blot assay
Format: cell-based
Details: filed as activator, dose 0.07-2 µM

SMILES	Activity
N=C(NCCCN1CCCCC1)Nc1nc2c(c(-c3ccoc3)n1)CCC2	Active

Biological target: Dystrophin (Mus musculus) (UniProt P11531)
Experiment: Induction of read through activity at dystrophin in mouse H2K mdx cells assessed as increase in production of full length dystrophin protein at 0.6 to 20 uM by western blot assay
Format: cell-based
Details: filed as activator, dose 0.6-20 µM

SMILES	Activity
Cc1nc(NC(=N)NCCCN2CCCC2)nc(-c2ccoc2)c1C	Active

Biological target: Dystrophin (Mus musculus) (UniProt P11531)
Experiment: Induction of read through activity at dystrophin in mouse H2K mdx cells assessed as increase in production of full length dystrophin protein at <2 uM by MSD assay
Format: cell-based
Details: filed as activator

SMILES	Activity
N=C(NCCCN1CCCCC1)Nc1nc2c(c(-c3ccoc3)n1)CCC2	Active
